{"source": "ChEMBL document CHEMBL3885881", "about": "“DrugMatrix”", "species_on_record": "Rattus norvegicus", "test": "DrugMatrix - Regimen: Daily Repeat", "format": "toxicity, organism-based, Sprague-Dawley", "parameters": "regimen Daily Repeat, gender Male, age 6-8 weeks", "conditions": "in vivo, po, route oral GAVAGE, […]; for ABSOLUTE BASOPHIL / BASOPHIL / NUCLEATED RED BLOOD CELLS / ABSOLUTE EOSINOPHIL / ABSOLUTE LYMPHOCYTE / ABSOLUTE MONOCYTE / ABSOLUTE SEGMENTED NEUTROPHIL / EOSINOPHIL / ERYTHROCYTE COUNT / HEMATOCRIT / HEMOGLOBIN / LEUKOCYTE COUNT / LYMPHOCYTE / MEAN CORPUSCULAR HEMOGLOBIN / MEAN CORPUSCULAR VOLUME / MONOCYTE / NEUTROPHIL / PLATELET COUNT: tissue Blood; for ALANINE AMINOTRANSFERASE / ALBUMIN / ALKALINE PHOSPHATASE / ASPARTATE AMINOTRANSFERASE / BLOOD UREA NITROGEN / CARBON DIOXIDE / CHLORIDE / CHOLESTEROL / CREATINE PHOSPHOKINASE / CREATININE / GLUCOSE / LACTATE DEHYDROGENASE / LIPASE / PHOSPHORUS / SODIUM / TOTAL BILIRUBIN / TOTAL PROTEIN / URIC ACID: tissue Plasma", "key": {"[1]": {"conditions": "0 mg/kg, 72 h, dose level Control, time 3 day"}, "[2]": {"conditions": "0 mg/kg, 120 h, dose level Control, time 5 day"}, "[3]": {"conditions": "25 mg/kg, 72 h, dose level Low, time 3 day"}, "[4]": {"conditions": "25 mg/kg, 120 h, dose level Low, time 5 day"}}}
{"smiles": "CC(=O)N1CCN(c2ccc(OCC3COC(Cn4ccnc4)(c4ccc(Cl)cc4Cl)O3)cc2)CC1", "note": "(configuration not stated) [KETOCONAZOLE]", "values": [{"measurement": "ABSOLUTE BASOPHIL", "setting": "[1]", "result": 0, "unit": "CELLS/uL"}, {"measurement": "BASOPHIL", "setting": "[1]", "result": 0, "unit": "%"}, {"measurement": "NUCLEATED RED BLOOD CELLS", "setting": "[1]", "result": "0 /100WBC"}, {"measurement": "ABSOLUTE BASOPHIL", "setting": "[2]", "result": 0, "unit": "CELLS/uL"}, {"measurement": "BASOPHIL", "setting": "[2]", "result": 0, "unit": "%"}, {"measurement": "ABSOLUTE BASOPHIL", "setting": "[3]", "result": 0, "unit": "CELLS/uL"}, {"measurement": "ABSOLUTE EOSINOPHIL", "setting": "[3]", "result": 0, "unit": "CELLS/uL"}, {"measurement": "ABSOLUTE LYMPHOCYTE", "setting": "[3]", "result": 6183, "unit": "CELLS/uL"}, {"measurement": "ABSOLUTE MONOCYTE", "setting": "[3]", "result": 155.33, "unit": "CELLS/uL"}, {"measurement": "ABSOLUTE SEGMENTED NEUTROPHIL", "setting": "[3]", "result": 695, "unit": "CELLS/uL"}, {"measurement": "BASOPHIL", "setting": "[3]", "result": 0, "unit": "%"}, {"measurement": "EOSINOPHIL", "setting": "[3]", "result": 0, "unit": "%"}, {"measurement": "ERYTHROCYTE COUNT", "setting": "[3]", "result": 5.13, "unit": "x10E6/uL"}, {"measurement": "HEMATOCRIT", "setting": "[3]", "result": 33.13, "unit": "%"}, {"measurement": "HEMOGLOBIN", "setting": "[3]", "result": 12.97, "unit": "G/DL"}, {"measurement": "LEUKOCYTE COUNT", "setting": "[3]", "result": 7.03, "unit": "x10E3/uL"}, {"measurement": "LYMPHOCYTE", "setting": "[3]", "result": 87.67, "unit": "%"}, {"measurement": "MEAN CORPUSCULAR HEMOGLOBIN", "setting": "[3]", "result": 25.3, "unit": "pg"}, {"measurement": "MEAN CORPUSCULAR VOLUME", "setting": "[3]", "result": 64.73, "unit": "fL"}, {"measurement": "MONOCYTE", "setting": "[3]", "result": 2, "unit": "%"}, {"measurement": "NEUTROPHIL", "setting": "[3]", "result": 10.33, "unit": "%"}, {"measurement": "NUCLEATED RED BLOOD CELLS", "setting": "[3]", "result": "0 /100WBC"}, {"measurement": "PLATELET COUNT", "setting": "[3]", "result": 1118, "unit": "x10E3/uL"}, {"measurement": "ALANINE AMINOTRANSFERASE", "setting": "[3]", "result": 90.33, "unit": "u/L"}, {"measurement": "ALBUMIN", "setting": "[3]", "result": 3.83, "unit": "G/DL"}, {"measurement": "ALKALINE PHOSPHATASE", "setting": "[3]", "result": 423.67, "unit": "u/L"}, {"measurement": "ASPARTATE AMINOTRANSFERASE", "setting": "[3]", "result": 89.33, "unit": "u/L"}, {"measurement": "BLOOD UREA NITROGEN", "setting": "[3]", "result": 12.67, "unit": "mg/dL"}, {"measurement": "CARBON DIOXIDE", "setting": "[3]", "result": 39, "unit": "mmol/L"}, {"measurement": "CHLORIDE", "setting": "[3]", "result": 95.33, "unit": "MEQ/L"}, {"measurement": "CHOLESTEROL", "setting": "[3]", "result": 74, "unit": "mg/dL"}, {"measurement": "CREATINE PHOSPHOKINASE", "setting": "[3]", "result": 308.67, "unit": "u/L"}, {"measurement": "CREATININE", "setting": "[3]", "result": 0.15, "unit": "mg/dL"}, {"measurement": "GLUCOSE", "setting": "[3]", "result": 163.33, "unit": "mg/dL"}, {"measurement": "LACTATE DEHYDROGENASE", "setting": "[3]", "result": 69.33, "unit": "u/L"}, {"measurement": "LIPASE", "setting": "[3]", "result": 10, "unit": "u/L"}, {"measurement": "PHOSPHORUS", "setting": "[3]", "result": 9.63, "unit": "mg/dL"}, {"measurement": "SODIUM", "setting": "[3]", "result": 136.67, "unit": "MEQ/L"}, {"measurement": "TOTAL BILIRUBIN", "setting": "[3]", "result": 0.13, "unit": "mg/dL"}, {"measurement": "TOTAL PROTEIN", "setting": "[3]", "result": 5.53, "unit": "G/DL"}, {"measurement": "URIC ACID", "setting": "[3]", "result": 0.43, "unit": "mg/dL"}, {"measurement": "ABSOLUTE BASOPHIL", "setting": "[4]", "result": 0, "unit": "CELLS/uL"}, {"measurement": "ABSOLUTE EOSINOPHIL", "setting": "[4]", "result": 0, "unit": "CELLS/uL"}, {"measurement": "ABSOLUTE LYMPHOCYTE", "setting": "[4]", "result": 8189, "unit": "CELLS/uL"}, {"measurement": "ABSOLUTE MONOCYTE", "setting": "[4]", "result": 181, "unit": "CELLS/uL"}, {"measurement": "ABSOLUTE SEGMENTED NEUTROPHIL", "setting": "[4]", "result": 1063.33, "unit": "CELLS/uL"}, {"measurement": "BASOPHIL", "setting": "[4]", "result": 0, "unit": "%"}, {"measurement": "EOSINOPHIL", "setting": "[4]", "result": 0, "unit": "%"}, {"measurement": "ERYTHROCYTE COUNT", "setting": "[4]", "result": 5.6, "unit": "x10E6/uL"}, {"measurement": "HEMATOCRIT", "setting": "[4]", "result": 34.17, "unit": "%"}, {"measurement": "HEMOGLOBIN", "setting": "[4]", "result": 13.47, "unit": "G/DL"}, {"measurement": "LEUKOCYTE COUNT", "setting": "[4]", "result": 9.43, "unit": "x10E3/uL"}, {"measurement": "LYMPHOCYTE", "setting": "[4]", "result": 86.67, "unit": "%"}, {"measurement": "MEAN CORPUSCULAR HEMOGLOBIN", "setting": "[4]", "result": 24.07, "unit": "pg"}, {"measurement": "MEAN CORPUSCULAR VOLUME", "setting": "[4]", "result": 61.1, "unit": "fL"}, {"measurement": "MONOCYTE", "setting": "[4]", "result": 2, "unit": "%"}, {"measurement": "NEUTROPHIL", "setting": "[4]", "result": 11.33, "unit": "%"}, {"measurement": "NUCLEATED RED BLOOD CELLS", "setting": "[4]", "result": "0 /100WBC"}, {"measurement": "PLATELET COUNT", "setting": "[4]", "result": 903, "unit": "x10E3/uL"}, {"measurement": "ALANINE AMINOTRANSFERASE", "setting": "[4]", "result": 74, "unit": "u/L"}, {"measurement": "ALBUMIN", "setting": "[4]", "result": 4.17, "unit": "G/DL"}, {"measurement": "ALKALINE PHOSPHATASE", "setting": "[4]", "result": 365.33, "unit": "u/L"}, {"measurement": "ASPARTATE AMINOTRANSFERASE", "setting": "[4]", "result": 92.33, "unit": "u/L"}, {"measurement": "BLOOD UREA NITROGEN", "setting": "[4]", "result": 11.33, "unit": "mg/dL"}, {"measurement": "CARBON DIOXIDE", "setting": "[4]", "result": 29.33, "unit": "mmol/L"}, {"measurement": "CHLORIDE", "setting": "[4]", "result": 103.67, "unit": "MEQ/L"}, {"measurement": "CHOLESTEROL", "setting": "[4]", "result": 75, "unit": "mg/dL"}, {"measurement": "CREATINE PHOSPHOKINASE", "setting": "[4]", "result": 400.67, "unit": "u/L"}, {"measurement": "CREATININE", "setting": "[4]", "result": 0.26, "unit": "mg/dL"}, {"measurement": "GLUCOSE", "setting": "[4]", "result": 155, "unit": "mg/dL"}, {"measurement": "LACTATE DEHYDROGENASE", "setting": "[4]", "result": 99.67, "unit": "u/L"}, {"measurement": "LIPASE", "setting": "[4]", "result": 11.67, "unit": "u/L"}, {"measurement": "PHOSPHORUS", "setting": "[4]", "result": 11.1, "unit": "mg/dL"}, {"measurement": "SODIUM", "setting": "[4]", "result": 144.93, "unit": "MEQ/L"}, {"measurement": "TOTAL BILIRUBIN", "setting": "[4]", "result": 0.2, "unit": "mg/dL"}, {"measurement": "TOTAL PROTEIN", "setting": "[4]", "result": 5.93, "unit": "G/DL"}, {"measurement": "URIC ACID", "setting": "[4]", "result": 0.8, "unit": "mg/dL"}]}
